Where two headings read alike, the source gives them in different places.
What was measured:
USP9X [1] = molecular target: T1, USP9X (Homo sapiens (Human), UniProt Q93008); assay: Steady-state enzyme inhibition kinetics of USP9X; assay type: biochemical
Description: The data were fit to a general model for enzyme inhibition (FIG. 1E) so the values of the parameters determined from the assays specified the mode of inhibition. For example, in the case of α=1 and β=0, it corresponded to purely non-competitive inhibition. For α=infinity and p=1, it corresponded to purely competitive inhibition. The values of all the parameters, KS, KI, kcat, α, and β could be determined from the steady state measurements. The enzyme reactions were set up as described in the Inhibiting the catalytic activity of USP9X section. The concentration of the substrate ubqiutin-rhodamine110 was varied. The initial rates of the reactions were determined at several concentrations of the inhibitor Compound 2A. In order to determine the values of the parameters KS and kcat, the reaction rates in the absence of the inhibitor Compound 2A, the initial reaction rate data were fit to the standard Michaelis-Menten equation v=Vmax [S]/(Km+[S]). The values of α and β could then be determined by fitting the initial rate data of the enzyme reaction at various concentrations of Compound 2A to a modified version of the Michaelis-Menten equation, designating both Vmax and KS apparent to distinguish the apparent values of the parameters determined from these plots to the true values for these parameters determined from the steady state kinetics in the absence of Compound 2A. The values of α and β could be determined from the variation of the slopes and intercepts of the series of double reciprocal plots of 1/v versus 1/[S] for each concentration of Compound 2A. […] The two values determined for KI were from the two different plots.
The two values for KI were determined by two different methods for determining this parameter from the kinetic data: 1 represented a value determined from the slope of the 1/A intercept vs 1/[I] plot; 2 represented a value determined from the y intercept of the 1/A slope vs 1/[I] plot. […] Only the values of the parameters varied for the compounds.

USP9X [2] = molecular target: T1, USP9X; assay: USP9X enzyme activity assay, ubiquitin-rhodamine110 substrate
Experimental: The inhibition property of compound Compound 1A was evaluated in assays measuring the ability of USP9X to catalyze the hydrolysis of the amide bond between the C terminal carboxylate of ubiquitin and rhodamine110 of the fluorogenic substrate ubiquitin-rhodamine 110. To the wells of a 96 well reaction plate was added 12.5 μL USP9X solution (1.3 nM) in assay buffer (100 mM NaCl, 1 mM DTT, 0.1% bovine serum albumin, 0.05% Tween 20, 50 mM Tris, pH 7.5). 12.5 μL of Compound 1A in assay buffer (4×final concentration) was added to the wells containing the USP9X solution, and the solution was gently mixed by pipetting up and down several times. The plate was sealed and incubated at room temperature for 20 minutes.
Then 25 μL of the 1 μM substrate (ubiquitin-rhodaminel10) solution was added in assay buffer. The final substrate concentration was 0.5 μM. […] The slope for the rate of change of the fluorescence was determined and plotted vs the concentration of Compound 1A.
USP9X enzyme assays were set up in a 96 well plate to assess the abilities of Compound 3A and Compound 4A to inhibit the activity of USP9X, respectively. Ubiquitin-rhodamine110 was used as the substrate and ubiquitin aldehyde was included in the assay as a positive control.
Purified recombinant USPx9 (R&D Systems) in 50 mM Tris buffer pH 7.5, 1 mM DTT, 100 mM NaCl, 0.05% Tween 20 and 0/1% BSA is used at a concentration of 0.325 nM with 0.5 μM ubiquitin-rhodamine (R&D Systems).

USP30 = USP30 (Homo sapiens (Human), UniProt Q70CQ3); assay: DUB selectivity panel using ubiquitin-AMC; assay type: biochemical; conditions: 5 μM compound, 500 nM Ubiquitin-AMC
Description: (§1) Compounds were screened for DUB inhibitory and apoptotic activity against other deubiquitylases in a DUB selectivity panel using ubiquitin-AMC (BPS Bioscience Inc.).

USP7 = USP7 (Homo sapiens (Human), UniProt Q93009); assay: DUB selectivity panel using ubiquitin-AMC; assay type: biochemical
Description: as §1

UCH-L3 = UCH-L3 (Homo sapiens (Human), UniProt P15374); assay: DUB selectivity panel using ubiquitin-AMC; assay type: biochemical; conditions: 5 μM compound, 500 nM Ubiquitin-AMC
Description: as §1

USP10 = USP10 (Homo sapiens (Human), UniProt Q14694); assay: DUB selectivity panel using ubiquitin-AMC; assay type: biochemical; conditions: 5 μM compound, 500 nM Ubiquitin-AMC
Description: as §1

Mcl-1 = assay: Western blot of Mcl-1 in U937 cells; assay type: cell-based
Experimental: After 24 hours treatment with Compound 7A, U937 cells were collected by centrifugation and whole cell lysates were prepared. These lysates were analyzed by Western blot to determine the level of Mcl-1. Western blot analysis was carried out as previously described (Wang et al., 2014 Journal of the American Society of Nephrology DOI: 10.1681/asn.2013060665). The band intensity for Mcl-1 in these samples were normalized to that of tubulin to correct for any inconsistencies in total protein in loading and processing the whole cell lysates.
To investigate the mechanism of action, Western blot analysis was carried out to test the induced degradation of USP9X substrate Mcl-1 by the compounds under the effects of protein synthesis inhibitor cycloheximide and/or proteasome inhibitor MG132. U937 cells were treated with 10 μM cycloheximide for one hour, with 10 μM MG132 for one hour, with the combination of 10 μM cycloheximide and 10 μM MG132 for one hour, and with vehicle (DMSO) for one hour, respectively, prior to the treatment with Compound 5A for 24 hrs. The U937 cells were harvested after treatment and whole cell lysates were prepared. These lysates were analyzed by Western blot to determine the abundance of Mcl-1 as well as that of tubulin as a normalization control. […] The band intensity of the Mcl-1 in cells treated with cycloheximide alone (Lane 2) was reduced relative to that for tubulin. […] Global blockade of protein synthesis by cycloheximide led to a significant decrease in the expression levels, especially for short lived Mcl-1. The retention of a reduced portion of Mcl-1 indicated the immunity of this portion to proteasomal degradation. […] In contrast, the band intensity of Mcl-1 relative to that of tubulin increased upon treatment of U937 cells with the proteasome inhibitor MG132 (Lane 4). […] Together, the results of this Example are consistent with the compounds acting on the proposed mechanism that intracellular inhibition of the deubiquitylase activity of USP9X blocks its ability to rescue USP9X substrates such as Mcl-1 from proteasomal degradation. In other aspects, by varying the concentration ratios of the compound and proteasome inhibitor for treating cells, it was possible to achieve controlled degradation of a USP9X substrate so the substrate could decline to a desirable level rather than degrade entirely.

RKO colon cells = assay: WST-1 cell viability assay; assay type: cell-based
Experimental: (§2) Compound Compound 9A was tested for the ability to inhibit the proliferation of Mia-Paca-2 pancreatic cancer cells. Mia-Paca-2 and MDA-MB-231 cells were seeded into the wells of a 96 well tissue culture plate in complete medium (10% fetal calf serum) and incubated overnight at 37° C./5% CO2). The medium was exchanged for fresh medium containing varying concentrations of Compound 9A and the plate was incubated for 72 hours at 37° C./5% CO2. The viability of cells at the end of this incubation was assessed with the WST-1 reagent. To 10 ml of warm (37° C.) complete medium, 1 ml WST-1 reagent was added. The medium from the wells of the plate with the Mia-Paca-2 cells was removed and replaced with 100 μL of the WST-1 reagent in complete medium. The plate was incubated at 37 37° C./5% CO2. At timed intervals the absorbance at 450 nm was determined for each well in a UVNis plate reader. For each well the slope of the plot of the absorbance 450 nm vs time was determined. The readings were normalized to that of the wells for the untreated control and a dose-response curve was plotted. A fit to the data was made from a four parameter, variable slope program (GraphPad Prism) and the IC50 was determined.
(§3) The same procedures were also applied to the compounds Compound 7A, Compound 6A, and Compound 8A to test their inhibitory activities against RKO colon, Mia-Paca-2 pancreatic and BT-549 cancer cells.

[3] = test system: Mia-Paca-2 pancreatic cancer cells; assay: WST-1 cell viability assay; assay type: cell-based; conditions: Mia-Paca-2 pancreatic cells
Experimental: as §2, §3

[4] = from the slope of the 1/Δ intercept vs 1/[I] plot, read-out: KI, nM (1)
[5] = from the y intercept of the 1/Δ slope vs 1/[I] plot, read-out: KI, nM (2)
[6] = read-out: IC50 for the inhibition of USP9X activity, ubiquitin-rhodamine110 substrate
[7] = read-out: USP9X IC50 nM, Table 2
[8] = 5 μM compound, 500 nM Ubiquitin-AMC

Chain of USP7 (Q93009 whole entry): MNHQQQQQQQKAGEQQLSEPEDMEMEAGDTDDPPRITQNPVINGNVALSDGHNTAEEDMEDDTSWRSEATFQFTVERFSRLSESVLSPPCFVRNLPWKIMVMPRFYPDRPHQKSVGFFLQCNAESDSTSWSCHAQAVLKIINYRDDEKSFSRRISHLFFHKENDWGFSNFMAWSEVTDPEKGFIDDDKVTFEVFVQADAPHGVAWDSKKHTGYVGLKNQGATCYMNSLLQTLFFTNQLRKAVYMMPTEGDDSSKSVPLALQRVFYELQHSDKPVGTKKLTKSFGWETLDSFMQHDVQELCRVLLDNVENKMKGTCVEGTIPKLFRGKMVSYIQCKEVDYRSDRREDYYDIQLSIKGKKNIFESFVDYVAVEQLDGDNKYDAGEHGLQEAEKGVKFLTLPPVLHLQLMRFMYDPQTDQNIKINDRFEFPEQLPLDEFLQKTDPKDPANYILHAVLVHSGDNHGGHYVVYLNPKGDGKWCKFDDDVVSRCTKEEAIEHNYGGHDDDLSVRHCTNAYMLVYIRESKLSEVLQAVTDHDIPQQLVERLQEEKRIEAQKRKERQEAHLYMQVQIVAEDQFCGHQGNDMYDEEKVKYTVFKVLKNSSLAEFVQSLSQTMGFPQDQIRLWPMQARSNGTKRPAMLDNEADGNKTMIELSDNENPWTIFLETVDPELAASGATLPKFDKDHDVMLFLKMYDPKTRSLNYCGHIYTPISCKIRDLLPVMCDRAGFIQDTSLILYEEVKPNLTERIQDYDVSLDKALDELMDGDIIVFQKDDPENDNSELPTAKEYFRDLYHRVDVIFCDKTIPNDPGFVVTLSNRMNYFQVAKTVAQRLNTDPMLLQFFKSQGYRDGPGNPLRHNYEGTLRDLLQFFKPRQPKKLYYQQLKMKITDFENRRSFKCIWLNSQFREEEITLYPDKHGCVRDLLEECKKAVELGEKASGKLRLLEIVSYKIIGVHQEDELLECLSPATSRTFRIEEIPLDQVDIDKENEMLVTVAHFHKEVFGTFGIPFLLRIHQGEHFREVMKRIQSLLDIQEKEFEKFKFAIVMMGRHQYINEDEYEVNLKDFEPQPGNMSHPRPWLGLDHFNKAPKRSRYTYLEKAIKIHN
T1 sequence (Q93008 whole entry): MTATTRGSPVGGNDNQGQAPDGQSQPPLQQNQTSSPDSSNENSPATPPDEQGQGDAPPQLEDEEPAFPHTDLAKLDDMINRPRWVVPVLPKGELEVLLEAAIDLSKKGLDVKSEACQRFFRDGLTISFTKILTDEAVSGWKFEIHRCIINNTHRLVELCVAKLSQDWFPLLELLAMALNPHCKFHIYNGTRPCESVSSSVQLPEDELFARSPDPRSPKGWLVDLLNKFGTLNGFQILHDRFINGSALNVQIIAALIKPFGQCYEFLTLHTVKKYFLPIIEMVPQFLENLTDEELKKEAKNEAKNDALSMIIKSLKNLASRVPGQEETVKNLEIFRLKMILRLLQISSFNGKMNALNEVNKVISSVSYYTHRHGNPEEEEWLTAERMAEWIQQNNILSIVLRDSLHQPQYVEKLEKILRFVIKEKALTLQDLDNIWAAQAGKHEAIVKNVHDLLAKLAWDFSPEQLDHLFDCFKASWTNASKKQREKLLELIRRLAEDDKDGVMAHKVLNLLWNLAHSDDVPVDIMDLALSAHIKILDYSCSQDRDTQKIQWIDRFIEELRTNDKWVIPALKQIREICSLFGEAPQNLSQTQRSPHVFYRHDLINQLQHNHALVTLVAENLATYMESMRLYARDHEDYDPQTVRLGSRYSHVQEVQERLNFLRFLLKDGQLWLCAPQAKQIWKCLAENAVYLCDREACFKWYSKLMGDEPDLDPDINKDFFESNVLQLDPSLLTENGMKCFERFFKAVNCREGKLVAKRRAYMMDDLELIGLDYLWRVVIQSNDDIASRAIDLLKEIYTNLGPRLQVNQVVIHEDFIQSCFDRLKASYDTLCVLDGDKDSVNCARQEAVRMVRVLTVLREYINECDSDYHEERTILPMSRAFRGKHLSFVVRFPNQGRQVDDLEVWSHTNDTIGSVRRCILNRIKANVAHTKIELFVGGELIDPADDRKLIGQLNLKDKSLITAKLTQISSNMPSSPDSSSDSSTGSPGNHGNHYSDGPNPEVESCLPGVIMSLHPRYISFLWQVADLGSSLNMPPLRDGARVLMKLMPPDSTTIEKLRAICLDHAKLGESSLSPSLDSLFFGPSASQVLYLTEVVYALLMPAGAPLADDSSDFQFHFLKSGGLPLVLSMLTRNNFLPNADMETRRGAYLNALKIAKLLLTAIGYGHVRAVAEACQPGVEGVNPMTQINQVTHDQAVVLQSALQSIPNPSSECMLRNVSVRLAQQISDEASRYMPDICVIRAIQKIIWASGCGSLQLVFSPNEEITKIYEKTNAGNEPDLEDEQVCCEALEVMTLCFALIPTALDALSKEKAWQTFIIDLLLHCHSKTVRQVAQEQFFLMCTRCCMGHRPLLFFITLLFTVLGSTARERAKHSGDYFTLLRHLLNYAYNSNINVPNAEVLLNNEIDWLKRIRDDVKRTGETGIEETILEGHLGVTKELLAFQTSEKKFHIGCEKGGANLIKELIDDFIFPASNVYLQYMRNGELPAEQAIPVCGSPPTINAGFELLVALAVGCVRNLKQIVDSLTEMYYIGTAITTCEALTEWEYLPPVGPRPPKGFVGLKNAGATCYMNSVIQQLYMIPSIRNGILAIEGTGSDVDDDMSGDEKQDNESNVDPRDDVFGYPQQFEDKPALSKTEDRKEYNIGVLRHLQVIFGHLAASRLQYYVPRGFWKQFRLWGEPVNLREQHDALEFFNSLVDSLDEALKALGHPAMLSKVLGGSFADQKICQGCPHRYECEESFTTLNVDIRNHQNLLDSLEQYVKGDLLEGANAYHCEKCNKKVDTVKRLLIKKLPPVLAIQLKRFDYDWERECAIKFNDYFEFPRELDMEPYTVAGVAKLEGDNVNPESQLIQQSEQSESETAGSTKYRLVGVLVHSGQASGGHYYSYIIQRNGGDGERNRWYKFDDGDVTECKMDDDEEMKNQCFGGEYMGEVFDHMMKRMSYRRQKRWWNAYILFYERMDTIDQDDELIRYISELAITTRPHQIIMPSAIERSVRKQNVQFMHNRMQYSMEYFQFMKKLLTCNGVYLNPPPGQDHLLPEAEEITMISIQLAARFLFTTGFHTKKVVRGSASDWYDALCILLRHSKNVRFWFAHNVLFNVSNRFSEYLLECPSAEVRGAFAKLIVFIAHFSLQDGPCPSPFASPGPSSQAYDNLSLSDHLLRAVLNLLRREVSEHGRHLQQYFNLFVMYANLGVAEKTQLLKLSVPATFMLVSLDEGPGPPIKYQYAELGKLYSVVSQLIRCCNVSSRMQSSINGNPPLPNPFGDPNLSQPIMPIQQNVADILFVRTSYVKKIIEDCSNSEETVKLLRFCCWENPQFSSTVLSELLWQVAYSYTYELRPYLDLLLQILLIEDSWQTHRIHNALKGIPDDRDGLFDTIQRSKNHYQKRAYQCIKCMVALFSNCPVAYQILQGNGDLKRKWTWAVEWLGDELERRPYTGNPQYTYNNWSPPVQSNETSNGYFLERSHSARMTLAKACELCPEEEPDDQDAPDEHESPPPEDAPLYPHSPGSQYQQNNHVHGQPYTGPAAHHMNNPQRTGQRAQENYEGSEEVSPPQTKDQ
Chain of UCH-L3 (P15374 whole entry): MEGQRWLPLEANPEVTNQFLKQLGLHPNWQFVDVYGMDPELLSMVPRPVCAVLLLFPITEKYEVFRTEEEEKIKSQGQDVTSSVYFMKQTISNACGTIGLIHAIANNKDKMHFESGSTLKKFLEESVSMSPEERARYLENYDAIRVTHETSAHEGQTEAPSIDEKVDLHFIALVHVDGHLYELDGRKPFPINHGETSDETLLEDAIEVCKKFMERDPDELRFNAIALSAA
Chain of USP10 (Q14694 whole entry): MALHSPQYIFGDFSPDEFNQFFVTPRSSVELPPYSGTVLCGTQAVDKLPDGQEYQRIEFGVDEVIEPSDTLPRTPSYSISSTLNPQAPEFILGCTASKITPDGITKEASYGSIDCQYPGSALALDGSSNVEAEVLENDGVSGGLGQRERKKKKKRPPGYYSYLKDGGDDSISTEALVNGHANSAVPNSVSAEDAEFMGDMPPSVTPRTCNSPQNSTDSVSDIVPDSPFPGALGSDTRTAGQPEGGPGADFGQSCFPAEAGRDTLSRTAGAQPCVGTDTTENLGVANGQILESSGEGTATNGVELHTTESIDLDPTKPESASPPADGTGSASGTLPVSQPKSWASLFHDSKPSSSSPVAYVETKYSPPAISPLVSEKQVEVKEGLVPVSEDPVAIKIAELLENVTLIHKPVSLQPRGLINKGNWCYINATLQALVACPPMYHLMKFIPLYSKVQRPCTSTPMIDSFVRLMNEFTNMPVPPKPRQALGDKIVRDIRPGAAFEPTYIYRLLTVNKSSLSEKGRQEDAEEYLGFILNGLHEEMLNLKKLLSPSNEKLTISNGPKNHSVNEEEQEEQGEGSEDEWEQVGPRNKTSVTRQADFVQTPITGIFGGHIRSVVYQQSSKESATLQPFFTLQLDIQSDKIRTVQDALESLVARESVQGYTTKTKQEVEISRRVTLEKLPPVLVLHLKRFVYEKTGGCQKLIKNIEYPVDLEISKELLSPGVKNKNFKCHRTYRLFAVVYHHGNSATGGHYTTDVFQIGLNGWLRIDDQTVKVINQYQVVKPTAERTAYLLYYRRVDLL

| SMILES | KS (USP9X [1]) | VMAX RFU/min (USP9X [1]) | α (USP9X [1]) | β (USP9X [1]) | Ki (USP9X [1]; [4]) | Ki (USP9X [1]; [5]) | IC50 (USP9X [2]; [6]) | IC50 (USP9X [2]; [7]) | inhibition at 5 µM (USP30) | IC50 (USP7) | inhibition at 5 µM (USP7; [8]) | inhibition of USP7 (USP7; [8]) | inhibition at 5 µM (UCH-L3) | inhibition of UCH-L3 (UCH-L3) | inhibition at 5 µM (USP10) | ability to induce the degradation of Mcl-1 on addition of MG132 (Mcl-1; 10 μM MG132 one hour before compound) | reduction of Mcl-1 (Mcl-1; Compound 5A for 24 hrs (Lane 3)) | cell viability (RKO colon cells) | cell viability [3] | decrease of normalized level of Mcl-1 (Mcl-1; 24-hour treatment, concentration from 0 to 33 μm) |
| --- | --- | --- | --- | --- | --- | --- | --- | --- | --- | --- | --- | --- | --- | --- | --- | --- | --- | --- | --- | --- |
| CN1CCOc2ccc(cc2)C(=O)NCc2cccc(c2)C(=O)N[C@@H](CC(C)(C)C)C(=O)Nc2ccc(cc2)CCN(C)C(=O)CC(C)(C)CC1=O [Compound 5A] | 1.2 µM | 335 RFU/min | 2.3 | 0.78 | 6.7 nM | 24 nM | 30 nM | 30 nM | < 5% | > 50 µM | 0% | no detectable effect | 0% | no detectable effect | < 1% | blocked | about 50% | – | – | – |
| CN1CCOc2ccc(cc2)C(=O)NCc2ccc(F)c(c2)C(=O)N[C@@H](CC(C)(C)C)C(=O)Nc2ccc(cc2)CCN(C)C(=O)CC(C)(C)CC1=O [Compound 7A] | 1.87 µM | 589 RFU/min | 1.85 | 0.72 | 9.4 nM | 10.3 nM | 11 nM | 11 nM | – | – | – | – | – | – | – | – | – | significant decreases | significant decreases | 50% |

Source: patent US20240294467A1, “USP9X Inhibitors” (ProDeg, LLC, priority 2021, published 2024)
